Experiments:
[1] = biological target: Cytochrome P450 2D6 (Homo sapiens, UniProt P10635)
Description: Inhibition of human CYP2D6 after 10 mins

[2] = biological target: T1, Cytochrome P450 1A2 (Homo sapiens, UniProt P05177)
T1 sequence (P05177 whole entry): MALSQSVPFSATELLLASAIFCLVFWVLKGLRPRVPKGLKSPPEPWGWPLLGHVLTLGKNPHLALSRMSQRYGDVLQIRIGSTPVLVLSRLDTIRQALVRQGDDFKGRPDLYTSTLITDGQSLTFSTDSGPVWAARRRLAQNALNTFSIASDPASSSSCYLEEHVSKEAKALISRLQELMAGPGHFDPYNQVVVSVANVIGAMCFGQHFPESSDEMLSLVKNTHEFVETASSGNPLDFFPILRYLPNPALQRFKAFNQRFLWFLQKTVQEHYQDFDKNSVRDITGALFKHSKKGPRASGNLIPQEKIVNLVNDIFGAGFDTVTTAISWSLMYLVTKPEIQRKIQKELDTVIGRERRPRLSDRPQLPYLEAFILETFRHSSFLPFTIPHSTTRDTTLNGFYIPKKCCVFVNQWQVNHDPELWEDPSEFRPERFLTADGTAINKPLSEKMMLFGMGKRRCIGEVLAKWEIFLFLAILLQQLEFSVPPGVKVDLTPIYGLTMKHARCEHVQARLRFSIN
Description: Inhibition of human CYP1A2 after 10 mins

[3] = biological target: Cytochrome P450 2C9 (Homo sapiens, UniProt P11712)
Chain of Cytochrome P450 2C9 (P11712 whole entry): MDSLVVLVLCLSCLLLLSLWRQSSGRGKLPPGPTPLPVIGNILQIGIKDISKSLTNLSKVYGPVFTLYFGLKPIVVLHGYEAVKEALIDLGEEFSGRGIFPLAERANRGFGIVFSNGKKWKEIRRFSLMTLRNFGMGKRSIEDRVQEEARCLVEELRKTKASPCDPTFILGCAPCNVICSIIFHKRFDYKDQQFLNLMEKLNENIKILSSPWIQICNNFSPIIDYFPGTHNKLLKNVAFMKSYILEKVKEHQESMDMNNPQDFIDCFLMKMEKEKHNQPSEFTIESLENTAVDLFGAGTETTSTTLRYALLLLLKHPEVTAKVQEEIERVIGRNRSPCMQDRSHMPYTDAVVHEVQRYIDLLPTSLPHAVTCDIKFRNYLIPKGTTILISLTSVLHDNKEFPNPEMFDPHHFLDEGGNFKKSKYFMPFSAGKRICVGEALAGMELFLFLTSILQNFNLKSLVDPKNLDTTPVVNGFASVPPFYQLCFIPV
Description: Inhibition of human CYP2C9 after 10 mins

[4] = biological target: Cytochrome P450 2C19 (Homo sapiens, UniProt P33261)
Chain of Cytochrome P450 2C19 (P33261 whole entry): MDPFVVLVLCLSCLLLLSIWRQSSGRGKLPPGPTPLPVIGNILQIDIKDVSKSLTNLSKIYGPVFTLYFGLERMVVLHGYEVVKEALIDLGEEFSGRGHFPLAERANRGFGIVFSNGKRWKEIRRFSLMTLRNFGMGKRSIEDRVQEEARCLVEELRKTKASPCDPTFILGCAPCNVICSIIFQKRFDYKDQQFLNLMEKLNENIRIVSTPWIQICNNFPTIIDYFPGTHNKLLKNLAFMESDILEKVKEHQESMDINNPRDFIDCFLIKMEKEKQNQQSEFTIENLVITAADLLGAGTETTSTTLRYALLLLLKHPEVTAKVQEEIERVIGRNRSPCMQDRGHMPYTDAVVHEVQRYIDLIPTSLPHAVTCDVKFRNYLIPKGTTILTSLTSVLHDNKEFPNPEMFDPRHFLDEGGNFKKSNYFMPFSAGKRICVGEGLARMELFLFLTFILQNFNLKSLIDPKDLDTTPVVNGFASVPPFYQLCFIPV
Description: Inhibition of human CYP2C19 after 10 mins

[5] = biological target: Cytochrome P450 3A4 (Homo sapiens, UniProt P08684)
Chain of Cytochrome P450 3A4 (P08684 whole entry): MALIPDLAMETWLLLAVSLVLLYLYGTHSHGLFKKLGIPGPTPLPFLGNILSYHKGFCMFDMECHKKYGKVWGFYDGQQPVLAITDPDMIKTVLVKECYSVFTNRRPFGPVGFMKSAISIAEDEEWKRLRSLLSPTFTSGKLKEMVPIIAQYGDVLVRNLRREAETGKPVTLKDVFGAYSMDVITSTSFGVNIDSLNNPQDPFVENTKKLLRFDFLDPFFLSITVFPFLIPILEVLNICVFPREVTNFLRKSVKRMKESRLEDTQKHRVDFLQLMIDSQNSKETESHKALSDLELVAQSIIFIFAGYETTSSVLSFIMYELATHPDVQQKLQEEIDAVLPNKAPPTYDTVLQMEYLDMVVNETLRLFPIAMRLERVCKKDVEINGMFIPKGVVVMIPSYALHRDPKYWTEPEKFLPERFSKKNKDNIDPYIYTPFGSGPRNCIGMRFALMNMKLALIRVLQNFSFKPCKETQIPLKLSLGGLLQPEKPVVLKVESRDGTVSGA
Description: Inhibition of human CYP3A4 after 10 mins

[6] = tested on: Liver microsomes
[7] = tested on: Liver microsomes; remark: listed apart in the source
[8] = biological target: Glutamate receptor 2 (Homo sapiens, UniProt P42262)
Chain of Glutamate receptor 2 (P42262 whole entry): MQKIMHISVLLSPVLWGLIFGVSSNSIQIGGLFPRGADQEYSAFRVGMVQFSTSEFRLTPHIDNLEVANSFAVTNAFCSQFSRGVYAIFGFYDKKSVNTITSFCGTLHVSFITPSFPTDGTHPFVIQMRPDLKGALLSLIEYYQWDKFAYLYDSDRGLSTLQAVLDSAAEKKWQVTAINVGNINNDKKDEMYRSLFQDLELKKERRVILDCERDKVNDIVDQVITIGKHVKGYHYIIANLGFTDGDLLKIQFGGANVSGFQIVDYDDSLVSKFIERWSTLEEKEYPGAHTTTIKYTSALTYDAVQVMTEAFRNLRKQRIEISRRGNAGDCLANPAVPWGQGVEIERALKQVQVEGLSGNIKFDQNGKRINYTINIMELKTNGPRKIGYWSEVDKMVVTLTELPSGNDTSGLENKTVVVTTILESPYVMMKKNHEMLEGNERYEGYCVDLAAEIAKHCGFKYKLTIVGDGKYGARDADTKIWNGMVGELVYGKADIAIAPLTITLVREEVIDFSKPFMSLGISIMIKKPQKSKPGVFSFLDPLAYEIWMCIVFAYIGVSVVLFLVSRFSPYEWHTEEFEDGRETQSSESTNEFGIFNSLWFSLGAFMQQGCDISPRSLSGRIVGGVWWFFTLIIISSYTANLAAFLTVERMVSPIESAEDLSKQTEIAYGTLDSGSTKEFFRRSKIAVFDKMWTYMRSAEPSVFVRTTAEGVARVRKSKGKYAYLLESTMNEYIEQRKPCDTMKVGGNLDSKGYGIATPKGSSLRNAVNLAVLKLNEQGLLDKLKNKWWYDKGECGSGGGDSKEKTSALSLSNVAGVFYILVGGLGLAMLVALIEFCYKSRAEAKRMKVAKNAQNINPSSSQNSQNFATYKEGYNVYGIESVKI
Description: Activation of human GluR2 flip isoform expressed in HEK293 cells assessed as increase of glutamate-induced intracellular calcium level by FLIPR assay

[9] = physchem
Description: Dissociation constant, pKa of the compound

[10] = Plasma protein binding in rat at 1 ug/ml after 6 hrs by equilibrium dialysis method; type: ADME, cell-free; conditions: read-out: PPB (converted)

Chain of Cytochrome P450 2D6 (P10635 whole entry): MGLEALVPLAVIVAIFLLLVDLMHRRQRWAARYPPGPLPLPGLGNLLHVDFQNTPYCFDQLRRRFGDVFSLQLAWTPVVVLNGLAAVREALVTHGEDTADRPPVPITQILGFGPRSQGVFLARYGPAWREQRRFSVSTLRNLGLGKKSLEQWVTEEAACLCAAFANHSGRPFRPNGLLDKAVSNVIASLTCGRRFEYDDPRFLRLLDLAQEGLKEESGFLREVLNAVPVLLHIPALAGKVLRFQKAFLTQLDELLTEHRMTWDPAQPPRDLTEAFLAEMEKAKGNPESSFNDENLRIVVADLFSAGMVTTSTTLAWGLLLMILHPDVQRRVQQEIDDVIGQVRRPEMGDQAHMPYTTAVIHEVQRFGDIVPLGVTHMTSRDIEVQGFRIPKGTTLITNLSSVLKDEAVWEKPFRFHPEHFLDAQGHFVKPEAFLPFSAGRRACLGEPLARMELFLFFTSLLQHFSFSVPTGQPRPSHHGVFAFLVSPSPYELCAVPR

SMILES	IC50 [1]	IC50 [2]	IC50 [3]	IC50 [4]	IC50 [5]	IC50 [6]	IC50 [7]	EC50 [8]	pKa [9]	fraction unbound at 6 h, 1 ug/ml [10]
CC(C)S(=O)(=O)NC1Cc2ccc(-c3cccc(C#N)c3)cc2C1 (stereo unspecified)								> 50.1 µM		
CC(C)S(=O)(=O)NC1Cc2ccc(-c3cccc(S(=O)(=O)N(C)C)c3)cc2C1 (stereo unspecified)								7.94 µM		
Cc1cccnc1-c1ccc2c(c1)CC(NS(=O)(=O)C(C)C)C2 (stereo unspecified)	> 10 µM	> 10 µM	> 10 µM	> 10 µM	> 10 µM	14 µM	1.3 µM	20 µM	4.9	
CC(C)S(=O)(=O)NC1Cc2ccc(-c3cccc(CN4CCCS4(=O)=O)c3)cc2C1 (stereo unspecified)								0.398 µM		0.033
CC(=O)Nc1cccc(-c2ccc3c(c2)CC(NS(=O)(=O)C(C)C)C3)c1 (stereo unspecified)								20 µM		0.051
CC(C)C(=O)Nc1cccc(-c2ccc3c(c2)CC(NS(=O)(=O)C(C)C)C3)c1 (stereo unspecified)								> 50.1 µM		
CC(=O)c1cccc(-c2ccc3c(c2)CC(NS(=O)(=O)C(C)C)C3)c1 (stereo unspecified)								> 50.1 µM		

Further lines, with some results ahead:

IC50 [1]	IC50 [2]	IC50 [3]	IC50 [4]	IC50 [5]	IC50 [6]	IC50 [7]	EC50 [8]	pKa [9]	SMILES	fraction unbound at 6 h, 1 ug/ml [10]
> 10 µM									CC(C)S(=O)(=O)N[C@@H]1Cc2ccc(-c3ccc(F)nc3)cc2C1	
> 10 µM	> 10 µM	> 10 µM	> 10 µM	> 10 µM	1.1 µM	1.7 µM			CC(C)S(=O)(=O)NC1Cc2ccc(-c3ccc(F)nc3)cc2C1 (stereo unspecified)	
> 10 µM	> 10 µM	> 10 µM	> 10 µM	> 10 µM	0.6 µM	0.5 µM	6.31 µM	2.7	CC(C)S(=O)(=O)NC1Cc2ccc(-c3ccc(F)cn3)cc2C1 (stereo unspecified)	
> 10 µM	> 10 µM	> 10 µM	> 10 µM	> 9 µM	4.5 µM	1.4 µM	20 µM	5.8	Cc1ccncc1-c1ccc2c(c1)CC(NS(=O)(=O)C(C)C)C2 (stereo unspecified)	
> 10 µM	> 10 µM	> 10 µM	> 10 µM	> 10 µM	< 0.8 µM	< 0.5 µM	7.94 µM		CC(C)S(=O)(=O)NC1Cc2ccc(-c3ccc(Cl)cn3)cc2C1 (stereo unspecified)	

From ChEMBL document CHEMBL1212831, “Discovery of N-[(2S)-5-(6-fluoro-3-pyridinyl)-2,3-dihydro-1H-inden-2-yl]-2-propanesulfonamide, a novel clinical AMPA receptor positive modulator” (J Med Chem, 2010)
